# Test results reported in US20260097111A1, “ETHER LIPIDS FOR HYPERACTIVATION OF MAMMALIAN DENDRITIC CELLS” (priority 2022, published 2026).
# Legend:
# Assay type in all cases: cell-based
# human moDCs [1] = test: moDC viability by LDH release and CellTiter-Glo 2.0
# Experimental: Monocyte Isolation, Storage, and Differentiation into moDC.
# CellTiter-Glo 2.0 Cell Viability Assay. As an additional method to measure cell viability, CellTiter-Glo 2.0 Cell Viability Assay kit from Promega was used. CellTiter-Glo 2.0 reagent was used according to instructions of the manufacturer. Briefly, frozen reagent was thawed at 4° C. and aliquoted. Aliquots were stored at 4° C. in the dark. After removing 150 μL of the cell culture volume for use in other assays, cells were lysed with 50 μL/well CellTiter-Glo reagent by pipetting up and down. After incubating in the dark at RT for 10 min, samples were transferred to white opaque 96-well plates. Luminescence was measured for 500 ms/well using a Spectramax M3 plate reader. Luminescence values were normalized to the mean values of control samples and multiplied 100-fold to report values as percentage viability.
# [2] = test system: human monocyte-derived dendritic cells (moDCs); test: IL-1β secretion by human moDCs treated with lipid and R848; details: human moDCs primed with R848 for 3 hours, then nigericin; FIG. 2B
# Experimental: (§1) Human monocytes were isolated from Leukopaks purchased from Miltenyi using the StraightFrom Leukopak CD14 microbead kit (Miltenyi). Isolations were completed following manufacturer's instructions. Monocytes were then aliquoted and frozen in fetal bovine serum containing 10% dimethyl sulfoxide. For studies with monocyte-derived dendritic cell (moDC) cultures, monocytes were thawed and cultured in RPMI medium containing 10% FBS, 50 units/mL penicillin, […] streptomycin, 2 mM L-glutamine, 1 mM sodium pyruvate, […] beta-mercaptoethanol, 10 mM HEPES, and Gibco MEM non-essential amino acids (R10 media). To differentiate monocytes into moDCs, recombinant human GM-CSF (50 ng/mL) and IL-4 (25 ng/mL) were added to R10 media. Cells were cultured for 6 days with GM-CSF and IL-4, with an additional cell feeding with R10 containing GM-CSF and IL-4 on day 3.
# Six days after differentiation, moDC were collected and counted. Cells were plated into 96-well flat-bottom plates at 1×10^5 cells/well. Cells were treated with or without 1 μg/mL R848 (final) and with or without a hyperactivating lipid (or vehicle control). In some experiments, MCC950, an inhibitor of the NLRP3 inflammasome, was added at a final concentration of 10 uM. In some experiments, nigericin, which causes NLRP3 inflammasome activation and subsequent pyroptosis, was used as a positive control at 20 uM. Cells and stimuli totaled a final volume of […].
# Lipid stocks were then further diluted in PBS to treat cells.
# (§2) After an overnight incubation, cells and culture supernatant were used for downstream readouts. One hundred and fifty microliters of cell supernatant were collected. Viability was measured using the CellTiter-Glo assay (Promega) which measures ATP content from cells. Fifty microliters of CellTiter-Glo reagent were added to 50 μL of cells. Luminescence was quantified on a SpectraMax m5e plate reader using an integration time of 500 milliseconds. Viability data were set relative to control conditions where cells were treated with only R848. To measure IL-1β secretion, the human IL-1β Lumit kit (Promega) was used to assay cell culture supernatant. Culture supernatant samples were incubated with enzyme-linked antibodies in a 384-well plate for 1 hour before addition of luminescent substrate. Samples were measured for luminescence with an integration time of 500 milliseconds. IL-1β concentrations of samples was determined by interpolation from a standard curve using 4-parameter logistic regression analysis. Studies were performed on three different human donor samples, and each biological condition was tested in triplicate. Graphed data represent means from each donor.
# as §1, with “Human moDC Production. Human” for “Human”, “(Miltenyi) according to the” for “(Miltenyi). Isolations were completed following”, “To differentiate” for “For studies with”, “pyruvate, and” for “pyruvate,”, “beta-mercaptoethanol” for “beta-mercaptoethanol, 10 mM HEPES, and Gibco MEM non-essential amino acids”
# Hyperactivating Lipid Formulation—Compound 10. Lipid stocks were formulated at 200 μg/mL lipid in 5% Kolliphor P407 (KP407) in PBS.
# human moDCs [3] = test: Cell viability of human moDCs (CellTiter-Glo); details: human
# Experimental: as §2
# Measurement of Cytokine Secretion and Cell Viability. After an overnight incubation, cells and culture supernatant were used for downstream readouts. One hundred and fifty microliters of cell culture supernatant were collected. Viability was measured using the CellTiter-Glo assay (Promega) which measures ATP content from cells. Fifty microliters of CellTiter-Glo reagent were added to 50 μL of cells. Luminescence was quantified on a SpectraMax m5e plate reader using an integration time of 500 milliseconds. Viability data were set relative to control conditions where cells were treated with only R848. To measure IL-1β secretion, the human IL-1β Lumit kit (Promega) was used. […] Samples were measured for luminescence with an integration time of 500 milliseconds. IL-1β concentrations of samples was determined by interpolation from a standard curve using 4-parameter logistic regression analysis. […]
smiles,measurement,setting,value
CO[C@@H]1C[C@@H](C[C@H]2CC[C@H](C)[C@H]([C@@H](C)C(=O)O)O2)O[C@]2(O[C@](C)([C@H]3CC[C@@](C)([C@@H]4O[C@@H]([C@H]5O[C@@](O)(CO)[C@H](C)C[C@@H]5C)C[C@@H]4C)O3)C[C@H]2C)[C@@H]1C [nigericin],cell viability (CellTiter-Glo),human moDCs [1],below 2%
same,cell viability (LDH release assay),human moDCs [1],below 75%
same,IL-1β secretion,[2],IL-1β was produced
same,decrease in cell viability,human moDCs [3],approximately 50%
